# Key:
# Type in all cases: cell-based
# [1] = system: Prostate cancer cell line LNcaP Clone FGC; experiment: Inhibitory activity on cancer cells, CellTiter-Glo viability, 72 h; details: Homo sapiens
# Source text: (§1) • HUVEC (purchased from Allcells Biological Technology (Shanghai) Co., Ltd.); UM-UC-3 (ATCC); LNCaP Clone FGC (ATCC); RM-1 (purchased from Nanjing Cobioer Biosciences Co., Ltd.) 2. Reagents • Endothelial cell complete medium (Allcells, H-004) • Medium RPMI1640 (ATCC, 30-2001) • Medium EMEM (ATCC, 30-2003) • Medium DMEM (Gibco, 12430-054) • Fetal bovine serum (Gibco, 10091148) • Penicillin-streptomycin double anti-body (Gibco, S110JV) • DPBS (Gibco, 14190-144) • CellTiter-Glo® kit (Promega, G7573) • Trypsin (0.25%), phenol red (Gibco, 25200-056) • DMSO (Sigma, D2650) 3. Instruments • Biological safety cabinet (Suzhou Antai Airtech Co., Ltd., BSC-1300A II) • Inverted microscope (Nikon, CKX53) • Automated cell counter (Life Technologies, countess II) • Multifunctional microplate reader (Biotek, H1FM) • Shaker (Hangzhou Allsheng Instruments Co., Ltd., OS-100) • GraphPad Prism 5.0 software • XLFIT 5.3 (Inforstack Shanghai Co., Ltd.) 4. Test Method
# (§2) In this test method, the following experiments were carried out in a biological safety cabinet, and the specific steps are as follows: • (1) On the first day, the cells were seeded in a 96-well plate, and the previous medium was poured off. 5 mL of DPBS was added to wash the cells, and then removed by a pipette. Then, 1 mL of trypsin (0.25%) was added, and the plate was placed in a cell culture incubator at 37° C., 5% CO2 for digestion, and taken out after about 2 to 5 minutes. New corresponding medium was added, and pipetted to resuspend the cells evenly, and the cells were then counted with an automated cell counter.
# (§3) The digestion was observed using an inverted microscope.
# (§4) Regarding to HUVEC, the medium used was endothelial cell complete medium; regarding to UM-UC-3, the medium used was 89v % EMEM+10v % fetal bovine serum+1 v % penicillin-streptomycin double anti-body; regarding to LNcaP Clone FGC, the medium used was 89v % RPM11640+10v % fetal bovine serum+1 v % penicillin-streptomycin double anti-body; and regarding to RM-1, the medium used was 89v % DMEM+10v % fetal bovine serum+1v % penicillin-streptomycin double anti-body. • (2) HUVEC cells were seeded in columns 1 to 11 of a 96-well plate (Corning, Cat. No. 3610) at a density of 2000 cells per well in 100 μL of medium, and the medium free of cell was added to the wells of column 12. The other three types of cells were also seeded, wherein UM-UC-3 and RM-1 cells were seeded at a density of 3000 cells per well, and LNCap Clone FGC cells were seeded at a density of 5000 cells per well. Then, the plate was placed in an incubator at 37° C., 5% CO2 for 24 hours. • (3) On the second day, the compounds of the present invention and the reference drug nitroxoline (obtained according to the preparation method disclosed in the prior art) were diluted in gradient (2.5 folds, started at 100 μmol) to obtain 8 dose points (there were a total of 8 columns of wells; the first column of wells had the highest concentration, the concentration decreased in turn, and the last column of wells had the lowest concentration). 10 uL of the compound diluted in gradient was added to the 100 μL of cells in column 1 to column 10 with an 8-channel pipette. 10 μL of the corresponding medium containing 0.33v % DMSO was added to column 11 and column 12. The plate was incubated in an incubator at 37° C., 5% CO2 for 72 hours (note: column 11 was used as MAX well with cells and no compounds; and column 12 was used as MIN well with no cells and no compounds). • (4) After treating with the compounds of the present invention for 72 hours, the cell viability detection reagents in the above CellTiter-Glo® kit were added to the 96-well plate at 50 μL per well according to the instructions. […]
# [2] = system: Mouse prostate cancer cell line RM-1; experiment: as above; details: RM-1, 72 h
# Source text: as §1, §2, §3, §4
# [3] = system: Bladder cancer cell line UM-UC-3; experiment: as above; details: Homo sapiens, UMUC3, UM-UC-3, 72 h
# Source text: as §1, §2, §3, §4
# Acinetobacter baumannii = experiment: Bacteriostatic activity, micro broth dilution MIC (CLSI); details: 20 hours; for MIC50 / MIC90: clinical strains (carbapenem-resistant), CAMHB; for MIC50: read-out: Acinetobacter baumannii Clinical strain MIC50; for MIC90: read-out: Acinetobacter baumannii Clinical strain MIC90; for MIC: standard strain ATCC19606, CAMHB
# Protocol: (§5) The purpose of this test is to determine the bacteriostatic activity of the compounds of the present invention against a representative panel of strains (Gram-negative bacteria: […] ATCC 25922, Acinetobacter baumannii ATCC 19606; Gram-positive bacteria: Staphylococcus aureus ATCC29213). Bacteriostatic activity was determined by minimum inhibitory concentration (MIC), MIC50, MIC90. This test was entrusted to Shanghai Junj Lab Co., Ltd. Except for the test drugs, all other test materials were provided by Shanghai Junj Lab Co., Ltd.
# (§6) The tested bacteria were several strains of clinically isolated carbapenem-resistant Escherichia coli, several strains of carbapenem-resistant Acinetobacter baumannii, several strains of methicillin-resistant Staphylococcus aureus, and several strains of sensitive Staphylococcus aureus. Duplicate strains isolated from the same patient were eliminated. There were also three quality control strains Escherichia coli ATCC 25922, Acinetobacter baumannii ATCC 19606, and Staphylococcus aureus ATCC 29213. The activity test of each compound was carried out on one or more strains of each of the above test bacteria.
# (§7) According to the recommendations of relevant documents of the American Clinical and Laboratory Standards Institute (CLSI), the micro broth dilution method was used to determine the MIC of the compounds of the present invention against clinically isolated strains. The culture solution free of drug was used as the test bacteria positive control, the culture solution free of bacterial solution was used as the drug negative control, and the culture solution free of drug solution and bacterial solution was used as the blank control. • 4.1 Formulation of antibacterial drug: All the compounds of the present invention were dissolved in DMSO. The drug concentration range was 128 mg/L-0.06 mg/L. Specific method: The compounds of the present invention were successively diluted by 1:1 with DMSO to obtain an intermediate series with a range of 25600 mg/L-12.5 mg/L. 30 μL of solution from each tube of the intermediate series of each compound was added to a 3 mL/tube series of single broth tube, and mixed well to obtain an intermediate series with a range of 256 mg/L to 0.125 mg/L. The diluted series solution was added to the drug susceptibility plate line by line, 50 μL of solution per well. All ranges became investigated ranges after being mixed with an equal volume of bacterial solution: 128-0.06 mg/L. • 4.2 Culture medium: The drug susceptibility test used cation adjusted Mueller-Hinton broth (CAMHB). • 4.3 Amount of inoculum: The test bacteria cultured overnight were adjusted to 0.5 McFarland turbidity by the direct colony suspension method, and diluted 100 folds, the final inoculum amount was 10^5 CFU/mL. • 4.4 Culture conditions: The test bacteria were cultured at 35±2° C. for 20 hours in air. 5. Interpretation and Judgment of Results
# (§8) The drug susceptibility test results were interpretated by reference to CLSI 2019 edition M100 29th edition criteria.
# (§9) The results of drug susceptibility test were statistically analyzed by WHONET version 5.6 software.
# (§10) The culture solution free of bacterial solution was used as the drug negative control, and the culture solution free of drug solution and bacterial solution was used as the blank control, wherein no bacteria grew in both solutions.
# Staphylococcus aureus = experiment: as above; details: 20 hours; for MIC50 / MIC90: clinical strains (methicillin-resistant and sensitive), CAMHB; for MIC50: read-out: Staphylococcus aureus Clinical strain MIC50; for MIC90: read-out: Staphylococcus aureus Clinical strain MIC90; for MIC: standard strain ATCC29213, CAMHB
# Protocol: as §5, §6, §7, §8, §9, §10
# Escherichia coli = experiment: as above; details: 20 hours; for MIC50 / MIC90: clinical strains (carbapenem-resistant), CAMHB; for MIC50: read-out: Escherichia coli Clinical strain MIC50; for MIC90: read-out: Escherichia coli Clinical strain MIC90; for MIC: standard strain ATCC25922, CAMHB
# Protocol: as §5, §6, §7, §8, §9, §10
IC50 [1] [µM],IC50 [2] [nM],IC50 [3] [µM],MIC50 (Acinetobacter baumannii) [µg/mL],MIC90 (Acinetobacter baumannii) [µg/mL],MIC (Acinetobacter baumannii) [µg/mL],MIC50 (Staphylococcus aureus) [µg/mL],MIC90 (Staphylococcus aureus) [µg/mL],MIC (Staphylococcus aureus) [µg/mL],MIC50 (Escherichia coli) [µg/mL],MIC90 (Escherichia coli) [µg/mL],MIC (Escherichia coli) [µg/mL],Structure (SMILES)
4.8,2800,4.9,–,–,–,–,–,–,–,–,–,"O=[N+]([O-])c1ccc(O)c2nccc(-c3cccnc3)c12 [Example 17, 5-nitro-4-(pyridin-3-yl)quinolin-8-ol]"
–,–,–,64,128,32,2,4,4,64,128,64,"CCOC(=O)c1cnc2c(O)ccc([N+](=O)[O-])c2c1 [Example 32, ethyl 8-hydroxy-5-nitroquinoline-3-carboxylate]"
–,–,–,–,–,–,1,1,2,64,64,64,"O=C(OCC1CC1)c1cnc2c(O)ccc([N+](=O)[O-])c2c1 [Example 39, cyclopropylmethyl 8-hydroxy-5-nitroquinoline-3-carboxylate]"
–,–,–,–,–,–,64,64,64,64,64,64,"O=[N+]([O-])c1c(F)cc(O)c2ncccc12 [Example 42, 8-hydroxy-6-fluoro-5-nitroquinoline]"
–,–,–,8,8,8,2,2,2,8,16,8,"O=[N+]([O-])c1ccc(O)c2nccc(C(F)(F)F)c12 [Example 26, 5-nitro-4-trifluoromethylquinolin-8-ol]"
–,–,3,–,–,–,–,–,–,–,–,–,"O=[N+]([O-])c1ccc(O)c2nccc(N3CCNCC3)c12 [Example 10, 5-nitro-4-(piperazin-1-yl)quinolin-8-ol]"
3.8,–,5,–,–,–,–,–,–,–,–,–,"O=[N+]([O-])c1ccc(O)c2nccc(-c3ccncc3)c12 [Example 14, 5-nitro-4-(pyridin-4-yl)quinolin-8-ol]"
–,–,–,–,–,–,64,64,32,8,8,8,"CCN(CC)C(=O)c1cnc2c(O)ccc([N+](=O)[O-])c2c1 [Example 40, N,N-diethyl-8-hydroxy-5-nitroquinoline-3-carboxamide]"
–,–,–,32,64,–,4,4,–,32,32,–,"CC(C)c1cc(O)c2ncccc2c1[N+](=O)[O-] [Example 33, 8-hydroxy-6-isopropyl-5-nitroquinoline]"
–,–,–,128,128,128,2,2,4,128,128,128,"O=C(OC1CCCCC1)c1cnc2c(O)ccc([N+](=O)[O-])c2c1 [Example 43, cyclohexyl 8-hydroxy-5-nitroquinoline-3-carboxylate]"
–,–,–,8,32,–,4,4,–,16,16,–,"O=[N+]([O-])c1c(C2CC2)cc(O)c2ncccc12 [Example 34, 8-hydroxy-6-cyclopropyl-5-nitroquinoline]"
–,–,–,32,32,32,4,4,4,32,32,32,"O=[N+]([O-])c1ccc(O)c2nccc(C3CCCCC3)c12 [Example 25, 4-cyclohexyl-5-nitroquinolin-8-ol]"
–,–,–,32,32,16,16,16,16,16,32,16,"N#Cc1ccnc2c(O)ccc([N+](=O)[O-])c12 [Example 27, 4-cyano-5-nitroquinolin-8-ol]"
5.5,–,5.5,–,–,–,–,–,–,–,–,–,"O=[N+]([O-])c1ccc(O)c2nccc(N3CCOCC3)c12 [Example 5, 4-morpholino-5-nitroquinolin-8-ol]"
–,–,–,8,16,–,4,4,–,4,8,8,"O=[N+]([O-])c1cc(F)c(O)c2ncccc12 [Example 1, 7-fluoro-5-nitroquinolin-8-ol]"
–,–,7,–,–,–,–,–,–,–,–,–,"O=[N+]([O-])c1ccc(O)c2nccc(N3CCCCC3)c12 [Example 6, 5-nitro-4-(piperidin-1-yl)quinolin-8-ol]"

# From US12503440B2, “Nitroxoline derivative, preparation method therefor, and use thereof” (Jiangsu Yahong Meditech Co., Ltd., priority 2020, dated 2025)
